Test results reported in patent US9115093B2, “Substituted bicyclic dihydropyrimidinones and their use as inhibitors of neutrophil elastase activity” (Boehringer Ingelheim International GmbH, priority 2013, dated 2015).

Biological target: T1, neutrophil elastase (Homo sapiens, UniProt P08246)
T1 sequence (P08246 30-247 limits assumed): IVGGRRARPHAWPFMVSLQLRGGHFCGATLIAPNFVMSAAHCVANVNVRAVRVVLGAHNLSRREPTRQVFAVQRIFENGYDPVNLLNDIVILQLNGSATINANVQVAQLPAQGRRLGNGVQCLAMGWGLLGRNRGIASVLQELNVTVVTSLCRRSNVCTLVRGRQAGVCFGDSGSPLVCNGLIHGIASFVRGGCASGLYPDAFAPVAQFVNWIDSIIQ
Assay: Human Neutrophil Elastase Assay
Type: biochemical
Set-up: purchased Calbiochem 324681
Details: substrate MeOSuc-Ala-Ala-Pro-Val-AMC, pH 7.5, room temperature
Method in brief: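 Readout: AMC fluorescence (ex 380, em 460 nm) after 60 min room-temperature reaction with 250 nM MeOSuc-AAPV-AMC, following 15 min compound–enzyme preincubation. Buffer: Tris/NaCl pH 7.5, 0.01% BSA.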

Row | IC50 [nM] | SMILES
1 | 52.1 | N#Cc1ccc(C2NC(=O)N(c3cccc(C(F)(F)F)c3)C3=C2C(=O)CCC3)nc1 (stereo not drawn) [Example 15, 6-(2,5-Dioxo-1-(3-(trifluoromethyl)phenyl)-1,2,3,4,5,6,7,8-octahydroquinazolin-4-yl)-nicotinonitrile]
2 | 15 | CN(C(=O)N1C(=O)N(c2cccc(C(F)(F)F)c2)C2=C(C(=O)CCC2)C1c1ccc(C#N)cc1)c1cnn(C)c1 (stereo not drawn) [Example 39.14]
3 | < 1 | N#CCNC(=O)N1C(=O)N(c2cccc(C(F)(F)F)c2)C2=C(C(=O)CCC2)C1c1ccc(C#N)cc1 (stereo not drawn) [Example 70.2]
4 | 23.2 | CN(C)CCN(C)C(=O)N1C(=O)N(c2cccc(C(F)(F)F)c2)C2=C(C(=O)CCC2)C1c1ccc(C#N)cc1 (stereo not drawn) [Example 39.11]
5 | 4.4 | N#Cc1ccc(C2C3=C(CCCC3=O)N(c3cccc(C(F)(F)F)c3)C(=O)N2CC(=O)N2CCSCC2)cc1 (stereo not drawn) [Example 36.28]
6 | 46.9 | CN1CCN(C(=O)N2C(=O)N(c3cccc(C(F)(F)F)c3)C3=C(C(=O)CCC3)C2c2ccc(C#N)cc2)CC1=O (stereo not drawn) [Example 39.16]
7 | 4 | CC1CN(C(=O)CN2C(=O)N(c3cccc(C(F)(F)F)c3)C3=C(C(=O)CCC3)C2c2ccc(C#N)cc2)CC1C (stereo not drawn) [Example 36.18]
8 | 47.6 | N#Cc1ccc(C2NC(=O)N(c3cccc(C(F)(F)F)c3)C3=C2C(=O)CC(c2ccccc2)C3)cc1 (stereo not drawn) [Example 6, 4-(2,5-dioxo-7-phenyl-1-(3-(trifluoromethyl)phenyl)-1,2,3,4,5,6,7,8-octahydroquinazolin-4-yl)benzonitrile]
9 | 1.2 | N#Cc1ccc(C2C3=C(CCCC3=O)N(c3cccc(C(F)(F)F)c3)C(=O)N2CC(=O)N2Cc3cccnc3C2)cc1 (stereo not drawn) [Example 36.46]
10 | 41.7 | N#Cc1ccc(C2NC(=O)N(c3cccc(C(F)(F)F)c3)C3=C2C(=O)CC(c2cccs2)C3)cc1 (stereo not drawn) [Example 9, 4-(2,5-Dioxo-7-(thiophen-2-yl)-1-(3-(trifluoromethyl)phenyl)-1,2,3,4,5,6,7,8-octahydroquinazolin-4-yl)benzonitrile]
11 | 3.1 | CN(C(=O)CN1C(=O)N(c2cccc(C(F)(F)F)c2)C2=C(C(=O)CCC2)C1c1ccc(C#N)cc1)C1CCS(=O)(=O)C1 (stereo not drawn) [Example 36.69]
12 | 11.8 | N#Cc1ccc(C2C3=C(CCCC3=O)N(c3cccc(C(F)(F)F)c3)C(=O)N2CC2CCOCC2)cc1 (stereo not drawn) [Example 26]
13 | 3.1 | COC1CCN(C(=O)CN2C(=O)N(c3cccc(C(F)(F)F)c3)C3=C(C(=O)CCC3)C2c2ccc(C#N)cc2)CC1 (stereo not drawn) [Example 36.40]
14 | 10.4 | CN1C(=O)CCC1CNC(=O)CN1C(=O)N(c2cccc(C(F)(F)F)c2)C2=C(C(=O)CCC2)C1c1ccc(C#N)cc1 (stereo not drawn) [Example 36.57]
15 | 39.4 | COC(=O)C1CC(=O)C2=C(C1)N(c1cccc(C(F)(F)F)c1)C(=O)NC2c1ccc(C#N)cc1 (stereo not drawn) [Example 11, Methyl 4-(4-Cyanophenyl)-2,5-dioxo-1-(3-(trifluoromethyl)phenyl)-1,2,3,4,5,6,7,8-octahydroquinazoline-7-carboxylate]
16 | 4.2 | CN1CCN(C(=O)CN2C(=O)N(c3cccc(C(F)(F)F)c3)C3=C(C(=O)CCC3)C2c2ccc(C#N)cc2)CC1=O (stereo not drawn) [Example 36.37]
17 | 54.1 | N#Cc1ccc(C2NC(=O)N(c3cccc(C(F)(F)F)c3)C3=C2C(=O)CCC3)cn1 (stereo not drawn) [Example 16, 5-(2,5-dioxo-1-(3-(trifluoromethyl)phenyl)-1,2,3,4,5,6,7,8-octahydroquinazolin-4-yl)-picolinonitrile]
18 | < 1 | CCNC(=O)N1C(=O)N(c2cccc(C(F)(F)F)c2)C2=C(C(=O)CCC2)C1c1ccc(C#N)cc1 (stereo not drawn) [Example 70.1]
19 | 8.6 | N#Cc1ccc(C2C3=C(CCCC3=O)N(c3cccc(C(F)(F)F)c3)C(=O)N2CC2CCOC2)cc1 (stereo not drawn) [Example 25, 4-(1-(3-(Trifluoromethyl)phenyl)-2,5-dioxo-3-((tetrahydrofuran-3-yl)methyl)-1,2,3,4,5,6,7,8-octahydroquinazolin-4-yl)benzonitrile]
20 | 20.5 | COCCCNC(=O)CN1C(=O)N(c2cccc(C(F)(F)F)c2)C2=C(C(=O)CCC2)C1c1ccc(C#N)cc1 (stereo not drawn) [Example 36.13]
21 | 20.8 | N#Cc1ccc(C2C3=C(CCCC3=O)N(c3cccc(C(F)(F)F)c3)C(=O)N2CC(=O)NCC2CC2)cc1 (stereo not drawn) [Example 36.3]

Row | IC50 [nM] | SMILES
22 | 1.1 | CC(C)(O)CCNC(=O)N1C(=O)N(c2cccc(C(F)(F)F)c2)C2=C(C(=O)CCC2)C1c1ccc(C#N)cc1 (stereo not drawn) [Example 70.16]
23 | 2.1 | N#Cc1ccc(C2C3=C(CCCC3=O)N(c3cccc(C(F)(F)F)c3)C(=O)N2CC(=O)N2CCNC(=O)C2)cc1 (stereo not drawn) [Example 36.21]
24 | 1 | Cn1ccc(CNC(=O)N2C(=O)N(c3cccc(C(F)(F)F)c3)C3=C(C(=O)CCC3)C2c2ccc(C#N)cc2)n1 (stereo not drawn) [Example 39.13]
25 | 1.8 | CS(=O)(=O)c1cc(C#N)ccc1[C@@H]1C2=C(CCCC2=O)N(c2cccc(C(F)(F)F)c2)C(=O)N1CC#N [Example 59, (S)-4-(3-(Cyanomethyl)-2,5-dioxo-1-(3-(trifluoromethyl)phenyl)-1,2,3,4,5,6,7,8-octahydroquinazolin-4-yl)-3-(methylsulfonyl)benzonitrile]
26 | < 1 | N#Cc1ccc(C2C3=C(CCCC3=O)N(c3cccc(C(F)(F)F)c3)C(=O)N2C(=O)NCC2CC(O)C2)cc1 (stereo not drawn) [Example 70.15]
27 | 19.4 | CCCCN1C(=O)N(c2cccc(C(F)(F)F)c2)C2=C(C(=O)CCC2)C1c1ccc(C#N)cc1 (stereo not drawn) [Example 21, 4-(3-Butyl-1-(3-(trifluoromethyl)phenyl)-2,5-dioxo-1,2,3,4,5,6,7,8-octahydroquinazolin-4-yl)benzonitrile]
28 | 26.3 | CN1CCCC1CNC(=O)CN1C(=O)N(c2cccc(C(F)(F)F)c2)C2=C(C(=O)CCC2)C1c1ccc(C#N)cc1 (stereo not drawn) [Example 36.39]
29 | < 1 | CNC(=O)N1C(=O)N(c2cccc(C(F)(F)F)c2)C2=C(C(=O)CCC2)C1c1ccc(C#N)cc1S(C)(=O)=O (stereo not drawn) [Example 47, 4-(4-Cyano-2-(methylsulfonyl)phenyl)-N-methyl-2,5-dioxo-1-(3-(trifluoromethyl)-phenyl)-1,2,5,6,7,8-hexahydroquinazoline-3(4H)-carboxamide]
30 | 1.3 | CCN1C(=O)N(c2cccc(C(F)(F)F)c2)C2=C(C(=O)CCC2)C1c1ccc(C#N)cc1S(C)(=O)=O (stereo not drawn) [Example 58, 4-(3-Ethyl-2,5-dioxo-1-(3-(trifluoromethyl)phenyl)-1,2,3,4,5,6,7,8-octahydroquinazolin-4-yl)-3-(methylsulfonyl)benzonitrile]
31 | 43.4 | N#Cc1ccc(C2NC(=O)N(c3cccc(C(F)(F)F)c3)C3=C2C(=O)CC(C(N)=O)C3)cc1 (stereo not drawn) [Example 12, 4-(4-Cyanophenyl)-2,5-dioxo-1-(3-(trifluoromethyl)phenyl)-1,2,3,4,5,6,7,8-octahydroquinazoline-7-carboxamide]
32 | 1.7 | N#Cc1ccc(C2C3=C(CCCC3=O)N(c3ccnc(C(F)(F)F)c3)C(=O)N2C(=O)NC2CC2)cc1 (stereo not drawn) [Example 76, 4-(4-Cyanophenyl)-N-cyclopropyl-2,5-dioxo-1-(2-(trifluoromethyl)pyridin-4-yl)-1,2,5,6,7,8-hexahydroquinazoline-3(4H)-carboxamide]
33 | < 1 | CCNC(=O)N1C(=O)N(c2cccc(C(F)(F)F)c2)C2=C(C(=O)CCC2)C1c1ccc(C#N)cc1C (stereo not drawn) [Example 74, 4-(4-Cyano-2-methylphenyl)-N-ethyl-2,5-dioxo-1-(3-(trifluoromethyl)phenyl)-1,2,5,6,7,8-hexahydroquinazoline-3(4H)-carboxamide]
34 | 26.3 | COc1cc(C2CC(=O)C3=C(C2)N(c2cccc(C(F)(F)F)c2)C(=O)NC3c2ccc(C#N)cc2)cc(OC)c1OC (stereo not drawn) [Example 8, 4-(2,5-Dioxo-1-(3-(trifluoromethyl)phenyl)-7-(3,4,5-trimethoxyphenyl)-1,2,3,4,5,6,7,8-octahydroquinazolin-4-yl)benzonitrile]
35 | 9.3 | N#Cc1ccc(C2C3=C(CCCC3=O)N(c3cccc(C(F)(F)F)c3)C(=O)N2CC(=O)N2Cc3ccccc3C2)cc1 (stereo not drawn) [Example 36.44]
36 | 22 | COC(=O)c1cc(S(=O)(=O)N2C(=O)N(c3cccc(C(F)(F)F)c3)C3=C(C(=O)CCC3)C2c2ccc(C#N)cc2)cs1 (stereo not drawn) [Example 44, Methyl 4-(4-(4-Cyanophenylcyanophenyl)-2,5-dioxo-1-(3-(trifluoromethyl)phenyl)-1,2,5,6,7,8-hexahydroquinazolin-3(4H)-ylsulfonyl)thiophene-2-carboxylate]
37 | 1.3 | CN1C(=O)N(c2cccc(C(F)F)c2)C2=C(C(=O)CCC2)C1c1ccc(C#N)cc1S(C)(=O)=O (stereo not drawn) [Example 49, 4-(1-(3-(Difluoromethyl)phenyl)-3-methyl-2,5-dioxo-1,2,3,4,5,6,7,8-octahydroquinazolin-4-yl)-3-(methylsulfonyl)benzonitrile]
38 | 3.4 | CS(=O)(=O)CS(=O)(=O)N1C(=O)N(c2cccc(C(F)(F)F)c2)C2=C(C(=O)CCC2)C1c1ccc(C#N)cc1 (stereo not drawn) [Example 44.9]
39 | 8.7 | CN(CCN1CCOCC1)C(=O)CN1C(=O)N(c2cccc(C(F)(F)F)c2)C2=C(C(=O)CCC2)C1c1ccc(C#N)cc1 (stereo not drawn) [Example 36.68]
40 | 19.3 | N#Cc1ccc(C2NC(=O)N(c3ccc(F)c(C(F)(F)F)c3)C3=C2C(=O)CCC3)cc1 (stereo not drawn) [Example 52.1]
41 | < 1 | CCNC(=O)N1C(=O)N(c2cccc(C(F)F)c2)C2=C(C(=O)CCC2)C1c1ccc(C#N)cc1S(C)(=O)=O (stereo not drawn) [Example 51, 4-(4-Cyano-2-(methylsulfonyl)phenyl)-1-(3-(difluoromethyl)phenyl)-N-ethyl-2,5-dioxo-1,2,5,6,7,8-hexahydroquinazoline-3(4H)-carboxamide]

Row | SMILES | IC50 [nM]
42 | COCCNC(=O)N1C(=O)N(c2cccc(C(F)(F)F)c2)C2=C(C(=O)CCC2)[C@H]1c1ccc(C#N)cc1S(C)(=O)=O [Example 75.6] | < 1
